# According to PubChem BioAssay (NCI):
#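 Cultured in 96-well plates, cells were exposed to test compound for 48 hours across five concentrations. Here, GI50 denotes the concentration required for 50% inhibition of growth. TGI: total growth inhibition.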
# Experiments:
# Assay in all cases: NCI anticancer screen, dose series, 48 h
# HOP-62 NSCLC = test system: HOP-62 NSCLC
# HCT-116 colon = test system: HCT-116 colon
# HCC-2998 colon = test system: HCC-2998 colon
# 786-0 renal = test system: 786-0 renal
# CAKI-1 renal = test system: CAKI-1 renal
# HS 578T breast = test system: HS 578T breast
# HOP-92 NSCLC = test system: HOP-92 NSCLC
# BT-549 breast = test system: BT-549 breast
# A549 NSCLC = test system: A549 NSCLC
# SK-MEL-5 melanoma = test system: SK-MEL-5 melanoma
# SK-OV-3 ovarian = test system: SK-OV-3 ovarian
# OVCAR-3 ovarian = test system: OVCAR-3 ovarian
# PC-3 prostate = test system: PC-3 prostate
# NCI-H522 lung = test system: NCI-H522 lung
# SF-539 CNS = test system: SF-539 CNS
# RXF 393 renal = test system: RXF 393 renal
# SF-268 CNS = test system: SF-268 CNS
# SF-295 CNS = test system: SF-295 CNS
# MCF7 breast = test system: MCF7 breast
# SR leukemia = test system: SR leukemia
# SNB-75 CNS = test system: SNB-75 CNS
# MALME-3M melanoma = test system: MALME-3M melanoma
# OVCAR-4 ovarian = test system: OVCAR-4 ovarian
# UACC-257 melanoma = test system: UACC-257 melanoma
# EKVX NSCLC = test system: EKVX NSCLC
# ACHN renal = test system: ACHN renal
# NCI-H226 lung = test system: NCI-H226 lung
# OVCAR-5 ovarian = test system: OVCAR-5 ovarian
# SK-MEL-2 melanoma = test system: SK-MEL-2 melanoma
# SW-620 colon = test system: SW-620 colon
# UO-31 renal = test system: UO-31 renal
# HT29 colon = test system: HT29 colon
# OVCAR-8 ovarian = test system: OVCAR-8 ovarian
# CCRF-CEM leukemia = test system: CCRF-CEM leukemia
# K-562 leukemia = test system: K-562 leukemia
# KM12 colon = test system: KM12 colon
# MDA-MB-435 = test system: MDA-MB-435
# U251 CNS = test system: U251 CNS
# HCT-15 colon = test system: HCT-15 colon
# IGROV1 ovarian = test system: IGROV1 ovarian
# NCI/ADR-RES ovarian = test system: NCI/ADR-RES ovarian
# A498 renal = test system: A498 renal
# HL-60(TB) leukemia = test system: HL-60(TB) leukemia
# DU-145 prostate = test system: DU-145 prostate
# NCI-H23 lung = test system: NCI-H23 lung
# RPMI-8226 leukemia = test system: RPMI-8226 leukemia
# MOLT-4 leukemia = test system: MOLT-4 leukemia
# NCI-H460 lung = test system: NCI-H460 lung
# SNB-19 CNS = test system: SNB-19 CNS
# COLO 205 colon = test system: COLO 205 colon
# LOX IMVI melanoma = test system: LOX IMVI melanoma
# TK-10 renal = test system: TK-10 renal
# MDA-MB-231 breast = test system: MDA-MB-231 breast
# M14 melanoma = test system: M14 melanoma
# UACC-62 melanoma = test system: UACC-62 melanoma
# SN12C renal = test system: SN12C renal
structure (smiles),measurement,setting,value
O=C(Nc1ccc(-c2nc(N3CCOCC3)c3cccn3n2)cc1)Nc1cccnc1,GI50,HOP-62 NSCLC,336 nM
same,TGI,HOP-62 NSCLC,> 100000 nM
same,GI50,HCT-116 colon,41 nM
same,TGI,HCT-116 colon,27700 nM
same,GI50,HCC-2998 colon,253 nM
same,TGI,HCC-2998 colon,> 100000 nM
same,GI50,786-0 renal,178 nM
same,TGI,786-0 renal,1980 nM
same,GI50,CAKI-1 renal,185 nM
same,TGI,CAKI-1 renal,3850 nM
same,GI50,HS 578T breast,54.5 nM
same,TGI,HS 578T breast,416 nM
same,TGI,HOP-92 NSCLC,63.7 nM
same,GI50,BT-549 breast,145 nM
same,TGI,BT-549 breast,951 nM
same,GI50,A549 NSCLC,244 nM
same,TGI,A549 NSCLC,> 100000 nM
same,GI50,SK-MEL-5 melanoma,196 nM
same,TGI,SK-MEL-5 melanoma,847 nM
same,GI50,SK-OV-3 ovarian,98.7 nM
same,TGI,SK-OV-3 ovarian,596 nM
same,GI50,OVCAR-3 ovarian,152 nM
same,TGI,OVCAR-3 ovarian,1060 nM
same,GI50,PC-3 prostate,51.2 nM
same,TGI,PC-3 prostate,2270 nM
same,GI50,NCI-H522 lung,125 nM
same,TGI,NCI-H522 lung,> 100000 nM
same,GI50,SF-539 CNS,39.6 nM
same,TGI,SF-539 CNS,296 nM
same,GI50,RXF 393 renal,34.5 nM
same,TGI,RXF 393 renal,359 nM
same,GI50,SF-268 CNS,248 nM
same,TGI,SF-268 CNS,87600 nM
same,GI50,SF-295 CNS,102 nM
same,TGI,SF-295 CNS,581 nM
same,GI50,MCF7 breast,48.3 nM
same,TGI,MCF7 breast,1490 nM
same,GI50,SR leukemia,245 nM
same,TGI,SR leukemia,15000 nM
same,GI50,SNB-75 CNS,43.2 nM
same,TGI,SNB-75 CNS,640 nM
same,GI50,MALME-3M melanoma,82 nM
same,TGI,MALME-3M melanoma,471 nM
same,GI50,OVCAR-4 ovarian,118 nM
same,TGI,OVCAR-4 ovarian,1270 nM
same,GI50,UACC-257 melanoma,428 nM
same,TGI,UACC-257 melanoma,40800 nM
same,GI50,EKVX NSCLC,216 nM
same,TGI,EKVX NSCLC,975 nM
same,GI50,ACHN renal,189 nM
same,TGI,ACHN renal,3640 nM
same,GI50,NCI-H226 lung,141 nM
same,TGI,NCI-H226 lung,1100 nM
same,GI50,OVCAR-5 ovarian,71 nM
same,TGI,OVCAR-5 ovarian,> 100000 nM
same,GI50,SK-MEL-2 melanoma,333 nM
same,TGI,SK-MEL-2 melanoma,> 100000 nM
same,GI50,SW-620 colon,52.4 nM
same,TGI,SW-620 colon,> 100000 nM
same,GI50,UO-31 renal,61.9 nM
same,TGI,UO-31 renal,546 nM
same,GI50,HT29 colon,300 nM
same,TGI,HT29 colon,> 100000 nM
same,GI50,OVCAR-8 ovarian,49.1 nM
same,TGI,OVCAR-8 ovarian,> 100000 nM
same,GI50,CCRF-CEM leukemia,54.7 nM
same,TGI,CCRF-CEM leukemia,> 100000 nM
same,GI50,K-562 leukemia,195 nM
same,TGI,K-562 leukemia,> 100000 nM
same,GI50,KM12 colon,162 nM
same,TGI,KM12 colon,16700 nM
same,GI50,MDA-MB-435,225 nM
same,TGI,MDA-MB-435,> 100000 nM
same,GI50,U251 CNS,180 nM
same,TGI,U251 CNS,> 100000 nM
same,GI50,HCT-15 colon,143 nM
same,TGI,HCT-15 colon,> 100000 nM
same,GI50,IGROV1 ovarian,76.7 nM
same,TGI,IGROV1 ovarian,464 nM
same,GI50,NCI/ADR-RES ovarian,393 nM
same,TGI,NCI/ADR-RES ovarian,6270 nM
same,GI50,A498 renal,47.5 nM
same,TGI,A498 renal,328 nM
same,GI50,HL-60(TB) leukemia,359 nM
same,TGI,HL-60(TB) leukemia,> 100000 nM
same,GI50,DU-145 prostate,212 nM
same,TGI,DU-145 prostate,> 100000 nM
same,GI50,NCI-H23 lung,269 nM
same,TGI,NCI-H23 lung,> 100000 nM
same,GI50,RPMI-8226 leukemia,138 nM
same,TGI,RPMI-8226 leukemia,1360 nM
same,GI50,MOLT-4 leukemia,230 nM
same,TGI,MOLT-4 leukemia,6800 nM
same,GI50,NCI-H460 lung,142 nM
same,TGI,NCI-H460 lung,> 100000 nM
Cc1cc(-c2cnn3c(NCC4CC(C)(O)C4)cc(Oc4cccnc4)nc23)ccc1C(=O)NC1CC1 (centres undefined),GI50,SNB-19 CNS,> 60700 nM
same,TGI,SNB-19 CNS,> 100000 nM
same,GI50,COLO 205 colon,1060 nM
same,TGI,COLO 205 colon,> 100000 nM
same,GI50,HOP-62 NSCLC,8570 nM
same,TGI,HOP-62 NSCLC,> 100000 nM
same,GI50,HCT-116 colon,85.8 nM
same,TGI,HCT-116 colon,> 100000 nM
same,GI50,786-0 renal,3710 nM
same,TGI,786-0 renal,> 100000 nM
same,GI50,CAKI-1 renal,1380 nM
same,TGI,CAKI-1 renal,> 100000 nM
same,GI50,LOX IMVI melanoma,395 nM
same,TGI,LOX IMVI melanoma,> 100000 nM
same,GI50,HS 578T breast,4190 nM
same,TGI,HS 578T breast,> 100000 nM
same,GI50,HOP-92 NSCLC,6420 nM
same,TGI,HOP-92 NSCLC,> 100000 nM
same,GI50,BT-549 breast,> 100000 nM
same,TGI,BT-549 breast,> 100000 nM
same,GI50,A549 NSCLC,3490 nM
same,TGI,A549 NSCLC,> 100000 nM
same,GI50,SK-MEL-5 melanoma,2220 nM
same,TGI,SK-MEL-5 melanoma,> 100000 nM
same,GI50,SK-OV-3 ovarian,2690 nM
same,TGI,SK-OV-3 ovarian,> 100000 nM
same,GI50,OVCAR-3 ovarian,> 100000 nM
same,TGI,OVCAR-3 ovarian,> 100000 nM
same,GI50,NCI-H522 lung,5080 nM
same,TGI,NCI-H522 lung,> 100000 nM
same,GI50,SF-539 CNS,2010 nM
same,TGI,SF-539 CNS,> 100000 nM
same,GI50,RXF 393 renal,1550 nM
same,TGI,RXF 393 renal,> 100000 nM
same,GI50,SF-268 CNS,8720 nM
same,TGI,SF-268 CNS,> 100000 nM
same,GI50,SF-295 CNS,3280 nM
same,TGI,SF-295 CNS,> 100000 nM
same,GI50,MCF7 breast,98900 nM
same,TGI,MCF7 breast,> 100000 nM
same,GI50,SR leukemia,525 nM
same,TGI,SR leukemia,> 100000 nM
same,GI50,SNB-75 CNS,2110 nM
same,TGI,SNB-75 CNS,> 100000 nM
same,GI50,UACC-257 melanoma,> 100000 nM
same,TGI,UACC-257 melanoma,> 100000 nM
same,GI50,TK-10 renal,1980 nM
same,TGI,TK-10 renal,> 100000 nM
same,GI50,MDA-MB-231 breast,3390 nM
same,TGI,MDA-MB-231 breast,> 100000 nM
same,GI50,EKVX NSCLC,3760 nM
same,TGI,EKVX NSCLC,> 100000 nM
same,GI50,ACHN renal,1290 nM
same,TGI,ACHN renal,> 100000 nM
same,GI50,NCI-H226 lung,> 100000 nM
same,TGI,NCI-H226 lung,> 100000 nM
same,GI50,OVCAR-5 ovarian,> 100000 nM
same,TGI,OVCAR-5 ovarian,> 100000 nM
same,GI50,SK-MEL-2 melanoma,1950 nM
same,TGI,SK-MEL-2 melanoma,> 100000 nM
same,GI50,M14 melanoma,1440 nM
same,TGI,M14 melanoma,> 100000 nM
same,GI50,SW-620 colon,591 nM
same,TGI,SW-620 colon,> 100000 nM
same,GI50,UO-31 renal,2020 nM
same,TGI,UO-31 renal,> 100000 nM
same,GI50,OVCAR-8 ovarian,2410 nM
same,TGI,OVCAR-8 ovarian,> 100000 nM
same,GI50,UACC-62 melanoma,2670 nM
same,TGI,UACC-62 melanoma,> 100000 nM
same,GI50,CCRF-CEM leukemia,259 nM
same,TGI,CCRF-CEM leukemia,> 100000 nM
same,GI50,K-562 leukemia,> 100000 nM
same,TGI,K-562 leukemia,> 100000 nM
same,GI50,U251 CNS,4180 nM
same,TGI,U251 CNS,> 100000 nM
same,GI50,HCT-15 colon,706 nM
same,TGI,HCT-15 colon,> 100000 nM
same,GI50,IGROV1 ovarian,992 nM
same,TGI,IGROV1 ovarian,> 100000 nM
same,GI50,NCI/ADR-RES ovarian,> 100000 nM
same,TGI,NCI/ADR-RES ovarian,> 100000 nM
same,GI50,A498 renal,435 nM
same,TGI,A498 renal,> 100000 nM
same,GI50,HL-60(TB) leukemia,1250 nM
same,TGI,HL-60(TB) leukemia,> 100000 nM
same,GI50,SN12C renal,2960 nM
same,TGI,SN12C renal,> 100000 nM
same,GI50,DU-145 prostate,2260 nM
same,TGI,DU-145 prostate,> 100000 nM
same,GI50,NCI-H23 lung,> 100000 nM
same,TGI,NCI-H23 lung,> 100000 nM
same,GI50,NCI-H460 lung,585 nM
same,TGI,NCI-H460 lung,> 100000 nM
